What was measured:
Experiment in all cases: post-emergence herbicidal action, greenhouse experiments
[1] = system: SETFA; assay type: in vivo, giant foxtail; details: for Harmful plant/action (post-emergence herbicidal action): scale 0 to 100
From the text: (§1) The culture containers used were plastic pots with loamy sand with approximately 3.0% humus as substrate. The seeds of the test plants were sown separately for each species.
(§2) For the purposes of the post-emergence treatment, the test plants were first grown to a height of 3 to 15 cm, depending on the growth habit, and only then treated with the active ingredients which were suspended or emulsified in water. To this end, the test plants were either sown directly and grown on in the same containers, or else they were first grown separately as seedlings and then transplanted into the experimental containers a few days prior to treatment. […]
(§3) The plants were kept at temperatures of 10-25° C. or 20-35° C., depending on the species. The experimental period extended over 2 to 4 weeks. During this time, the plants were tended, and their response to the individual regimes were evaluated.
(§4) For the evaluation, a scale of 0 to 100 was used. 100 means no emergence of the plants, or complete destruction of at least the aerial parts, and 0 means no damage or normal course of growth.
(§5) The plants used in the greenhouse experiments consisted of the following species: […]

[2] = system: BRAPL; assay type: in vivo, alexandergrass
From the text: as §1
(§6) For the purposes of the post-emergence treatment, the test plants were first grown to a height of 3 to 15 cm, depending on the growth habit, and only then treated with the active ingredients which were suspended or emulsified in water. To this end, the test plants were either sown directly and grown on in the same containers, or else they were first grown separately as seedlings and then transplanted into the experimental containers a few days prior to treatment. The application rate for the post-emergence treatment was 31.3, 15.6, 7.8 and/or 3.9 g of a.s./ha.
as §3, §4, §5

[3] = system: BIDPI; assay type: in vivo, hairy beggarticks; details: for Harmful plant/action (post-emergence herbicidal action): scale 0 to 100
From the text: as §1, §2, §3, §4, §5

[4] = system: ECHCG; assay type: in vivo, barnyardgrass
From the text: as §1, §6, §3, §4, §5

[5] = system: CHEAL; assay type: in vivo, lambsquarters; details: for Harmful plant/action (post-emergence herbicidal action): scale 0 to 100
From the text: as §1, §6, §3, §4, §5

[6] = 7.8 and 3.9 g of a.s./ha, compared with Comparative Example VC
[7] = 7.8 and 3.9 g of a.s./ha, compared with Comparative Example VB
[8] = 31.3 and 15.6 g of a.s./ha, compared with Comparative Example VA
[9] = application rate 15.6 g/ha a.s.
[10] = application rate 31.3 g/ha a.s.

CCc1nc2c(Cl)cc(F)c(-c3ncc(C(F)(F)F)c(C)c3Cl)c2o1 [ICe.3, 4-Chloro-7-[3-chloro-4-methyl-5-(trifluoromethyl)-2-pyridinyl]-2-ethyl-6-fluoro-1,3-benzoxazole]
action against the harmful plant compared with Comparative Example [1, 6]: considerably better action
post-emergence herbicidal action, SETFA ([1]; application rate 3.9 g/ha a.s.): 100
post-emergence herbicidal action, SETFA ([1]; application rate 7.8 g/ha a.s.): 100
action against the harmful plant compared with Comparative Example [2, 6]: considerably better action
post-emergence herbicidal action, BRAPL ([2]; application rate 3.9 g/ha a.s.): 80
post-emergence herbicidal action, BRAPL ([2]; application rate 7.8 g/ha a.s.): 90
action against the harmful plant compared with Comparative Example [3, 6]: considerably better action
post-emergence herbicidal action, BIDPI ([3]; application rate 3.9 g/ha a.s.): 100
post-emergence herbicidal action, BIDPI ([3]; application rate 7.8 g/ha a.s.): 100

C#CCOc1cc(-c2ncc(C(F)(F)F)c(C)c2Cl)c(F)cc1Cl [IAa.10, 2-(2-Fluoro-4-chloro-5-propargyloxyphenyl)-3-chloro-4-methyl-5-trifluoromethylpyridine]
action against the harmful plant compared with Comparative Example [4, 7]: considerably better action
Harmful plant/action (post-emergence herbicidal action) ([4]; application rate 3.9 g/ha a.s., scale 0 to 100): 70
Harmful plant/action (post-emergence herbicidal action) ([4]; application rate 7.8 g/ha a.s., scale 0 to 100): 85
action against the harmful plant compared with Comparative Example [1, 7]: considerably better action
Harmful plant/action (post-emergence herbicidal action) ([1]; application rate 3.9 g/ha a.s.): 98
Harmful plant/action (post-emergence herbicidal action) ([1]; application rate 7.8 g/ha a.s.): 98
action against the harmful plant compared with Comparative Example [3, 7]: considerably better action
Harmful plant/action (post-emergence herbicidal action) ([3]; application rate 3.9 g/ha a.s.): 100
Harmful plant/action (post-emergence herbicidal action) ([3]; application rate 7.8 g/ha a.s.): 100
Harmful plant/action (post-emergence herbicidal action) ([5]; application rate 3.9 g/ha a.s.): 100
Harmful plant/action (post-emergence herbicidal action) ([5]; application rate 7.8 g/ha a.s.): 100

COc1cc(-c2ncc(C(F)(F)F)c(C)c2Cl)c(F)cc1Cl [IAa.3, 2-(2-fluoro-4-chloro-5-methoxyphenyl-1-yl)-3-chloro-4-methyl-5-trifluoromethylpyridine]
action against the harmful plant compared with Comparative Example [4, 8]: considerably better action
Harmful plant/action (post-emergence herbicidal action) ([4]; application rate 15.6 g/ha a.s., scale 0 to 100): 90
Harmful plant/action (post-emergence herbicidal action) ([4]; application rate 31.3 g/ha a.s., scale 0 to 100 (100 = complete destruction, 0 = no damage)): 100
action against the harmful plant compared with Comparative Example [1, 8]: considerably better action
Harmful plant/action (post-emergence herbicidal action) [1, 9]: 95
Harmful plant/action (post-emergence herbicidal action) [1, 10]: 100
action against the harmful plant compared with Comparative Example [3, 8]: considerably better action
Harmful plant/action (post-emergence herbicidal action) [3, 9]: 60
Harmful plant/action (post-emergence herbicidal action) [3, 10]: 60
action against the harmful plant compared with Comparative Example [5, 8]: considerably better action
Harmful plant/action (post-emergence herbicidal action) [5, 9]: 100
Harmful plant/action (post-emergence herbicidal action) [5, 10]: 100

CCc1nc2c(Cl)cc(F)c(-c3ncc(C(F)(F)F)cc3Cl)c2o1 [VC, reference compound]
post-emergence herbicidal action, SETFA ([1]; application rate 3.9 g/ha a.s.): 90
post-emergence herbicidal action, SETFA ([1]; application rate 7.8 g/ha a.s.): 95
post-emergence herbicidal action, BRAPL ([2]; application rate 3.9 g/ha a.s.): 40
post-emergence herbicidal action, BRAPL ([2]; application rate 7.8 g/ha a.s.): 55
post-emergence herbicidal action, BIDPI ([3]; application rate 3.9 g/ha a.s.): 50
post-emergence herbicidal action, BIDPI ([3]; application rate 7.8 g/ha a.s.): 55

C#CCN1C(=O)COc2cc(F)c(-c3ncc(C(F)(F)F)cc3Cl)cc21 [VD, reference compound]
post-emergence herbicidal action, SETFA ([1]; application rate 1.9 g/ha a.s.): 60
post-emergence herbicidal action, SETFA ([1]; application rate 3.9 g/ha a.s.): 90
post-emergence herbicidal action, BIDPI ([3]; application rate 1.9 g/ha a.s.): 50
post-emergence herbicidal action, BIDPI ([3]; application rate 3.9 g/ha a.s.): 55
